# Measurements from paper PMC8615111, “Phenolic Thiazoles with Antioxidant and Antiradical Activity. Synthesis, In Vitro Evaluation, Toxicity, Electrochemical Behavior, Quantum Studies and Antimicrobial Screening” (Antioxidants, 2021).
# Where two headings read alike, the source gives them in different places.
# Experiments:
# P. aeruginosa ATCC 27853 = test: Antimicrobial activity, modified microdilution; assay type: cell-based; conditions: Pseudomonas aeruginosa, ATCC27853
# Protocol: For evaluating the antimicrobial activity of the compounds, […] aerobic microbial strains were used: S. aureus ATCC 25923, S. pyogenes ATCC 19615, P. aeruginosa ATCC 27853, S. enterica ISM 83/37, S. typhimurium ATCC 14028, E. coli ATCC 8739, E. coli ATCC 25922, and C. albicans ATCC 102310 obtained from Food Biotechnology Laboratory, Life Sciences Institute, University of Agricultural Sciences, and Veterinary Medicine Cluj Napoca, where the experiment was performed. The antimicrobial activity of the compounds was determined using a modified microdilution technique, and the followed protocol was previously reported.
# The antimicrobial activity of the final compounds, against seven aerobic microbial strains (S. aureus ATCC 25923, S. pyogenes ATCC 19615, P. aeruginosa ATCC 27853, S. enterica ISM 83/37, S. typhimurium ATCC 14028, E. coli ATCC 8739, E. coli ATCC 25922), and a fungal strain (C. albicans ATCC 102310), was determined using a modified microdilution technique.
# The results of the antimicrobial activity evaluation of the compounds, in comparison to norfloxacin and chloramphenicol used as standard antibiotics and fluconazole used as reference antifungal, are depicted in Table 10.
# [1] = DPPH˙ radical scavenging by cyclic voltammetry; conditions: for Ered (V): 2nd Ered column; for Ired (μA): 2nd Ired
# Protocol: The antioxidant properties were evaluated in terms of their activity against some free radicals, and other compounds reported in the literature, relevant for this purpose, such as: • ferric ions (Fe^3+)—used to test the reduction of the antioxidant character of the compounds; • DPPH˙ free radical– used to test the scavenging effect of the compounds on this radical; • hydrogen peroxide (H2O2)—used to test the scavenging effect of the synthesized molecules on this compound; • 2,2,6,6-tetramethylpiperidinyl-1-oxy (TEMPO)—used to test the scavenging effect of the synthesized molecules on this compound.
# The radical scavenging properties of the novel compounds and the other antioxidants were determined using a stock DPPH˙ radical solution prepared in absolute ethanol. The antioxidant samples were mixed with DPPH˙ solution and HClO4 electrolyte and incubated in the dark for 30 min. The remaining redox activity of DPPH was measured by cycling the potential between −0.7 V and 1.2 V, with a scan rate of 0.1 V/s.
# The nitrogen-centered 2-2-diphenyl-1-picrylhydrazyl radical (DPPH˙) based assay is one of the most commonly employed method to evaluate the ability of a compound to scavenge or neutralize free radicals based on the reduction of the radical.
# Taking into account the redox activity of DPPH˙, its diminution by an antioxidant can also be followed by CV, which is expected to show changes in the voltammetric peaks. Figure A5 reports the electrochemical study of initial electrooxidation of DPPH˙ and the novel compounds compared to remaining peaks after their incubation for 30 min. The decrease of all the peaks after mixture incubation indicates the partial consumption of DPPH˙.
# [2] = Cyclic voltammetry of the compounds on graphite-based SPE; assay type: physicochemical; conditions: CV, 0.1 M HClO4, graphite-based SPE
# Protocol: The evaluated compounds’ stock solutions used were prepared at a concentration of 5 mM. To test their redox properties, dilutions of 0.5 mM and 2 mM were prepared in 0.1 M HClO4 electrolyte (pH = 1.2). Screen-printed electrodes (SPEs; Metrohm DropSens, Oviedo, Spain) (planar electrodes) with graphite and gold working electrodes were used. Cyclic voltammetry (CV) and differential pulse voltammetry (DPV) were the electrochemical methods applied. The experimental conditions for each test are mentioned near the corresponding data (Appendix A).
# In Figure 2, the cyclic voltammograms (CVs) for each of the compounds considered in this study, compared individually with the voltammogram obtained in the electrolyte (0.1 M HClO4), are presented. Thus, the oxidation/reduction peaks corresponding to the electrochemical transformations suffered by each compound can be observed in the potential range considered, in an acidic environment (low pH). From Figure 3, where the voltammograms of all eight compounds were presented together, a similarity is observed between 8a and 8b, and among the other compounds, whereas 5a and 5b can be noted as having the highest oxidation signals.
# [3] = NO˙ radical scavenging assay (Griess reaction); assay type: biochemical; conditions: 100 µL of test solution 1 mg/mL in DMSO, 150 min, pH 7.4
# Protocol: Scavenging of the NO˙ radical was performed according to some adapted protocols reported in the literature, based on the nitroprusside decomposition at physiological pH and colorimetric quantification of the resulted products using the Griess reaction.
# Over 200 µL of 10 mM sodium nitroprusside, 100 µL of test solutions (1 mg/mL in DMSO), and 400 µL phosphate-buffered saline (PBS, pH = 7.4) were added. The mixture was then incubated at room temperature for 150 min on a rotating shaker (GFL Gesellschaft für Labortechnik, Burgwedel, Germany). After that, 1 mL of sulfanilic acid 0.33% in 20% acetic acid was added and after 5 min, 1 mL of naphthylethylenediamine […] 0.1% was added to all test tubes. After 30 min, the absorbance of the sample, given by the chromophore (azo dye) formed during the diazotization of nitrite ions resulting from decomposition of sodium nitroprusside with sulfanilic acid and coupled with naphthylethylenediamine, was measured at 546 nm. The NO˙ radical scavenging activity of the tested compounds was calculated using Equation (3):(3) NO˙ scavenging (%)=control absorbance−sample absorbance/control absorbance×100
# Cu^2+ chelation assay = assay type: biochemical
# [4] = ABTS˙^+ radical scavenging assay; assay type: biochemical; conditions: for IC50: ABTS˙^+ scavenging
# Protocol: The assay was based on the decolorization of green (2,2′-azinobis-(3-ethylbenzothiazoline-6-sulfonic acid) ABTS˙^+ to ABTS, on the principle reported by Re et al. and was carried out according to our previously published research.
# Later, 1950 µL of ABTS˙^+ reagent was added to all cuvettes and they were shaken for well over 10 min in the dark at room temperature. The absorbance of the resulted solutions found in cuvettes was determined spectrophotometrically at λ = 734 nm. The ABTS scavenging activity of the compounds was calculated using the following Equation (1):(1) ABTS scavenging (%)=control absorbance−sample absorbance/control absorbance×100
# [5] = compound + DPPH, 30 min, 2nd Eox
Compound,MIC (P. aeruginosa ATCC 27853) [µg/mL],"Iox (μA) ([1]; compound + DPPH, 30 min)","Eox (V) [1, 5] [V]","Ered (V) ([1]; compound + DPPH, 30 min)","Ired (μA) ([1]; compound + DPPH, 30 min)",Iox (μA) ([1]; compound alone),Ered (V) ([1]; compound alone),Ired (μA) ([1]; compound alone),Eox (V) ([2]; 2nd oxidation peak),Iox (μA) ([2]; 2nd oxidation peak),Eox (V) ([2]; 3rd oxidation peak),Iox (μA) ([2]; 3rd oxidation peak),Ered (V) ([2]; 3rd reduction peak),Ired (μA) ([2]; 3rd reduction peak),% of NO˙ Scavenged [3] [%],"Chelation Capacity (%), cupric ions (Cu^2+ chelation assay; 3.36 µg/mL) [%]","Chelation Capacity (%), cupric ions (Cu^2+ chelation assay; 6.72 µg/mL) [%]","Chelation Capacity (%), cupric ions (Cu^2+ chelation assay; 10.08 µg/mL) [%]","Chelation Capacity (%), cupric ions (Cu^2+ chelation assay; 13.44 µg/mL) [%]","Chelation Capacity (%), cupric ions (Cu^2+ chelation assay; 16.80 µg/mL) [%]",also measured
"C/C(=N\Nc1nc(C)cs1)c1ccc(O)cc1O [Compound 5a, Dihydroxy-Phenyl-Thiazol-Hydrazinium chloride]",31.2,13.23,0.362,0.188,−5.46,43.29,0.137,−9.59,0.384,50.85,0.632,19.21,0.256,−2.17,36.26,10.74,14.51,20.10,28.62,33.67,"Eox (V) ([1]; compound + DPPH, 30 min, 3rd Eox column): 0.572 V; Iox (μA) ([1]; compound + DPPH, 30 min, 3rd Iox column): 11.81 μA; Eox (V) ([1]; compound + DPPH, after 30 min of reaction, 1st Eox column): 0.218 V; Iox (μA) ([1]; compound + DPPH, after 30 min of reaction, 1st Iox column): 8.68 μA; Eox (V) ([1]; compound alone, 2nd Eox): 0.339 V; Eox (V) ([1]; compound alone, 3rd Eox column): 0.598 V; Iox (μA) ([1]; compound alone, 3rd Iox column): 20.51 μA; Eox (V) ([1]; compound alone, 4th Eox column): 0.987 V; Iox (μA) ([1]; compound alone, 4th Iox column): 15.5 μA; Ered (V) ([2]; 1st reduction peak): −0.075 V; Ired (μA) ([2]; 1st reduction peak): −6.62 μA"
"Cc1csc(N/N=C/c2ccc(O)cc2O)n1.Cl [Compound 5b, (E)-2-(2,4-dihydroxybenzylidene)-1-(4-methylthiazol-2-yl)hydrazin-1-ium chloride]",,33.3,0.349,0.145,−7.56,31.76,0.11,−10.26,0.425,69.35,0.632,5.87,0.286,−2.86,35.63,11.58,15.60,22.76,28.99,34.10,"MIC (P. aeruginosa ATCC 27853; P. aeruginosa ATCC 27853, read-out: MIC): 31.2 µg/mL; Eox (V) ([1]; compound alone, 2nd Eox): 0.357 V; % of ABTS˙^+ Scavenged ([4]; 0.5 µg/mL): 35.55%; % of ABTS˙^+ Scavenged ([4]; 0.75 µg/mL): 41.10%; % of ABTS˙^+ Scavenged ([4]; 1 µg/mL): 48.40%; % of ABTS˙^+ Scavenged ([4]; 1.5 µg/mL): 66.50%; % of ABTS˙^+ Scavenged ([4]; 2.5 µg/mL): 98.09%; IC50 [4]: 1.00 µg/mL; Ered (V) ([2]; 2nd reduction peak): 0.085 V; Ired (μA) ([2]; 2nd reduction peak): −0.68 μA"
"Br.C/C(=N\Nc1nc(-c2ccccc2)cs1)c1ccc(O)cc1O [Compound 6a, (E)-2-(1-(2,4-dihydroxyphenyl)ethylidene)-1-(4-phenylthiazol-2-yl)hydrazin-1-ium bromide]",31.2,18.21,0.379,,,,0.193,−4.16,0.418,22.48,0.621,15.03,0.379,−1.19,20.58,6.33,10.30,13.65,15.90,18.67,"Eox (V) ([1]; compound alone 0.5 mM in 0.1 M HClO4, 1st Eox column): 0.232 V; Iox (μA) ([1]; compound alone 0.5 mM in 0.1 M HClO4, 1st Iox column): 4.99 μA; Eox (V) ([1]; compound alone, 3rd Eox column): 0.565 V; Iox (μA) ([1]; compound alone, 3rd Iox column): 4.37 μA; % of ABTS˙^+ Scavenged ([4]; 0.5 µg/mL): 4.75%; % of ABTS˙^+ Scavenged ([4]; 0.75 µg/mL): 7.92%; % of ABTS˙^+ Scavenged ([4]; 1 µg/mL): 12.68%; % of ABTS˙^+ Scavenged ([4]; 1.5 µg/mL): 22.21%; % of ABTS˙^+ Scavenged ([4]; 2.5 µg/mL): 36.01%; IC50 [4]: 3.34 µg/mL; Eox (V) ([2]; 1st oxidation peak): 0.298 V; Iox (μA) ([2]; 1st oxidation peak): 10.73 μA; Ered (V) ([2]; 2nd reduction peak): 0.181 V; Ired (μA) ([2]; 2nd reduction peak): −6.84 μA"
